In PubChem BioAssay AID743476 (The Scripps Research Institute Molecular Screening Center, 2014) one finds inhibition data, which are given here for 2 compounds.

The subject of this experiment is CCHF-vOTU. Nature of the experiment: PubChem AID 743476. The settings on record: Recombinant CCHFV vOTU, PEP-AMC fluorescence cleavage, with PEP-AMC substrate, hits give high values.

Active and inactive are the calls of the source. How the calls were made is not given here.

With `O=C(O)CSc1cc(NS(=O)(=O)c2cccc([N+](=O)[O-])c2)c2ccccc2c1O`, the inhibition – broadly, the relative decrease from the control value, in per cent – was -7.65% (inactive) (Assay 1, at 2.44 µM); 5.22% (inactive) (Assay 2, at 2.44 µM); 13.1% (inactive) (Assay 3, at 4.88 µM).
For `O=C1Cc2ccccc2C(=O)N1Cc1ccccc1`, the inhibition (Assay 1, at 1.28 µM) is 38.7% and the inhibition (Assay 2, at 1.28 µM) is 50.3%.
